{"source": "patent US20240189318A1", "about": "“THERAPEUTIC REGIMENS OF AN INHIBITOR OF THE ENZYMATIC ACTIVITY OF BRG1 AND BRM” (FOGHORN THERAPEUTICS INC., priority 2021, published 2024)", "key": {"[1]": {"tested_on": "Uveal melanoma cell lines, 92-1 or MP41", "experiment": "3-day growth inhibition, Compound A compared with clinical PKC and MEK inhibitors", "assay_type": "cell-based"}, "[2]": {"tested_on": "Uveal melanoma cell lines (92-1, MP41, MP38, MP46) and non-small cell lung cancer cells (NCIH1299)", "experiment": "3-day growth inhibition, Compound B", "assay_type": "cell-based", "conditions": "92-1, MP41, MP38, MP46, NCIH1299; 3 days, 0 to 10 μM"}, "[3]": {"tested_on": "Uveal melanoma cell lines, 92-1 or MP41", "experiment": "3-day growth inhibition, Compound B compared with clinical PKC and MEK inhibitors", "assay_type": "cell-based"}, "CYP2C19": {"target": "CYP2C19 (Homo sapiens, UniProt P33261)", "sequence (P33261 whole entry)": "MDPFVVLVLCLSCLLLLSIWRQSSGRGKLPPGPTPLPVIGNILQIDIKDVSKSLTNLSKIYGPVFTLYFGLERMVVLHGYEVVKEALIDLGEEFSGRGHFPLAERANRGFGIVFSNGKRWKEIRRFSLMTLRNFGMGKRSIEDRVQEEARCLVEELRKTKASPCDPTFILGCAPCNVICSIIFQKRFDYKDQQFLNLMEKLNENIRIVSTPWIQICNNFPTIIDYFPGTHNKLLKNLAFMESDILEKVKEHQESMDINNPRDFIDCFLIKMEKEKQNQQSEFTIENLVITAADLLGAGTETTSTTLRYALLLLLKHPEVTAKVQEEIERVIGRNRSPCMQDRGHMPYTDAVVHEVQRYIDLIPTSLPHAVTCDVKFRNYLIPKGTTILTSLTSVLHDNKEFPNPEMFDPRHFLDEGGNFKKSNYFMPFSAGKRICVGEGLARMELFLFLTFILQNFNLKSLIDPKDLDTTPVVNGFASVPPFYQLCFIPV", "experiment": "Selective chemical inhibition of compound of formula (I) depletion in human liver microsomes, CYP2C19", "assay_type": "in vitro ADME", "design": "from tissue; host or cells: human liver microsomes", "conditions": "human, human liver microsomes, probe compound of formula (I) (depletion); Time-dependent inhibitor; targeted CYP 2C19; inhibitor 10 μM"}, "CYP1A2": {"target": "T1, CYP1A2 (Homo sapiens, UniProt P05177)", "T1 sequence (P05177 1-516)": "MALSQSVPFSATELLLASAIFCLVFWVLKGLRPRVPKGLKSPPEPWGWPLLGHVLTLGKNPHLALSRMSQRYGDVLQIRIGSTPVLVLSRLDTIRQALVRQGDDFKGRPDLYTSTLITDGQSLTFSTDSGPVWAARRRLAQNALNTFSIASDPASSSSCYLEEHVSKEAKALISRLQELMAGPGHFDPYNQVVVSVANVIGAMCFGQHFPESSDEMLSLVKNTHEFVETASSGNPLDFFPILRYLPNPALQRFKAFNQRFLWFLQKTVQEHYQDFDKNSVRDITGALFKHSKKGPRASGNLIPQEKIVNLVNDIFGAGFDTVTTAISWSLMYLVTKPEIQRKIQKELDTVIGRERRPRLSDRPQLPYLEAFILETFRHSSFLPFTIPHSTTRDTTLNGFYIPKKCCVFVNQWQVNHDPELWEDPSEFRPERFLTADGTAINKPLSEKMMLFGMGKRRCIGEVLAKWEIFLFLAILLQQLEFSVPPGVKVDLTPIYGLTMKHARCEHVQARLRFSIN", "experiment": "in vitro"}, "2C8": {"target": "T2, 2C8 (Homo sapiens, UniProt P10632)", "T2 construct": "from tissue; host or cells: human liver microsomes", "T2 sequence (P10632 whole entry)": "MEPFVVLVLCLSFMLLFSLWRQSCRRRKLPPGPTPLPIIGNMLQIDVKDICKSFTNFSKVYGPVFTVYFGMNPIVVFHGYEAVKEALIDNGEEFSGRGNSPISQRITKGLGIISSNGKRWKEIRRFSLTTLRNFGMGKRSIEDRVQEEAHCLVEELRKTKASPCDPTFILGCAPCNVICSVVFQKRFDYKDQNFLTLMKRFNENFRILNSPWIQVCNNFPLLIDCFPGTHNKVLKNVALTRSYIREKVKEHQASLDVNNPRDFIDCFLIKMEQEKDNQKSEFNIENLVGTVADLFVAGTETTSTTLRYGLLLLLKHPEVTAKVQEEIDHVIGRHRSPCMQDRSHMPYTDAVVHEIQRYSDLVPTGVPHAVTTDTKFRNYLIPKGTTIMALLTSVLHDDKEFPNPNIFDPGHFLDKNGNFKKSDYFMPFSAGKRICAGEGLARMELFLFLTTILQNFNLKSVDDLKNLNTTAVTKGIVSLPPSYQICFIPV", "experiment": "Selective chemical inhibition of compound of formula (I) depletion in human liver microsomes, CYP2C8", "assay_type": "in vitro ADME", "conditions": "Time-dependent inhibitor; targeted CYP 2C8; inhibitor 100 μM"}, "CYP3A4/5": {"tested_on": "CYP3A4/5", "experiment": "Selective chemical inhibition of compound of formula (I) depletion in human liver microsomes, CYP3A4/5", "conditions": "human"}, "[4]": {"tested_on": "parental MP41 cells and PKC inhibitor (PKCl)-resistant cells", "experiment": "7-day growth inhibition assay, parental and PKC inhibitor-resistant cells", "assay_type": "cell-based", "conditions": "7-day assay"}, "CYP2A6": {"target": "T3, CYP2A6 (Homo sapiens, UniProt P11509)", "T3 construct": "from tissue; host or cells: human liver microsomes", "T3 sequence (P11509 whole entry)": "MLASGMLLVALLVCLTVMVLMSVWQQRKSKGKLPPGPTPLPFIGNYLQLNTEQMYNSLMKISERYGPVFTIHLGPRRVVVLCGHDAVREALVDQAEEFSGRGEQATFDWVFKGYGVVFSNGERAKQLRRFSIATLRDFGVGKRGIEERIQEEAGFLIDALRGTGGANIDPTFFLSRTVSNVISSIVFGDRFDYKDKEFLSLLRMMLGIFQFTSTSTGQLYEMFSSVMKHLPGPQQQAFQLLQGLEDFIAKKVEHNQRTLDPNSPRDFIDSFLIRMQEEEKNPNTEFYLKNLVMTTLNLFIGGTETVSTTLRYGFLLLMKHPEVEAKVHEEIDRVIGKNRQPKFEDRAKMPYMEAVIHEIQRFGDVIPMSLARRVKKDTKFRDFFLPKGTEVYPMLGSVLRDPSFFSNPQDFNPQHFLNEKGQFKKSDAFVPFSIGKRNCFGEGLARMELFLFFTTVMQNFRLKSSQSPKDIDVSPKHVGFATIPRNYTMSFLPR", "experiment": "Selective chemical inhibition of compound of formula (I) depletion in human liver microsomes, CYP2A6", "assay_type": "in vitro ADME", "conditions": "probe compound of formula (I) (depletion), Direct inhibitor, targeted CYP 2A6, inhibitor 10 μM"}, "CYP1A2 mRNA": {"tested_on": "CYP1A2 mRNA", "experiment": "CYP mRNA level (qRT-PCR) in cultured human hepatocytes, CYP1A2", "conditions": "50 μM, range of fold change observed from three donors"}, "CYP1A2 enzyme activity": {"tested_on": "CYP1A2 enzyme activity", "experiment": "CYP enzyme activity in cultured human hepatocytes, CYP1A2", "assay_type": "in vitro ADME", "conditions": "50 μM, range from three donors"}, "CYP2B6": {"target": "T4, CYP2B6 (Homo sapiens, UniProt P20813)", "T4 sequence (P20813 1-491)": "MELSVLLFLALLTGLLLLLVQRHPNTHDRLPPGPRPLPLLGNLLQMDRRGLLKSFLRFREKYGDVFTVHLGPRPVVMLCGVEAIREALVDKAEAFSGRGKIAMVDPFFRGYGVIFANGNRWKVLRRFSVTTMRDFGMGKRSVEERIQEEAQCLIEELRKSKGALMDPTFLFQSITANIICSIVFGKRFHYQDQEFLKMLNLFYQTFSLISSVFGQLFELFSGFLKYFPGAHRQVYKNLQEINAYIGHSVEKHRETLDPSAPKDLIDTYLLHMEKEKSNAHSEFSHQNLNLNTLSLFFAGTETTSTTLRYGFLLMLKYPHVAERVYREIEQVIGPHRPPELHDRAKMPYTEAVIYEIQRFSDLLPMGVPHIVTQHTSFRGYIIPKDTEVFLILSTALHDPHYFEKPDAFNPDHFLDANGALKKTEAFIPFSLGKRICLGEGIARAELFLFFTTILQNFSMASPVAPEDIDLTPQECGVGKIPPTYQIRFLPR", "experiment": "Selective chemical inhibition of compound of formula (I) depletion in human liver microsomes, CYP2B6", "assay_type": "in vitro ADME", "design": "from tissue; host or cells: human liver microsomes", "conditions": "probe compound of formula (I) (depletion), Time-dependent inhibitor, targeted CYP 2B6, inhibitor 30 μM"}, "CYP2B6 mRNA": {"tested_on": "CYP2B6 mRNA", "experiment": "CYP mRNA level (qRT-PCR) in cultured human hepatocytes, CYP2B6", "conditions": "CYP2B6; 1000 μM; range from three donors"}, "CYP2B6 activity": {"tested_on": "CYP2B6 activity", "experiment": "CYP enzyme activity in cultured human hepatocytes, CYP2B6", "assay_type": "in vitro ADME", "conditions": "1000 μM, range from three donors"}, "2D6": {"target": "2D6 (Homo sapiens, UniProt P10635)", "sequence (P10635 whole entry)": "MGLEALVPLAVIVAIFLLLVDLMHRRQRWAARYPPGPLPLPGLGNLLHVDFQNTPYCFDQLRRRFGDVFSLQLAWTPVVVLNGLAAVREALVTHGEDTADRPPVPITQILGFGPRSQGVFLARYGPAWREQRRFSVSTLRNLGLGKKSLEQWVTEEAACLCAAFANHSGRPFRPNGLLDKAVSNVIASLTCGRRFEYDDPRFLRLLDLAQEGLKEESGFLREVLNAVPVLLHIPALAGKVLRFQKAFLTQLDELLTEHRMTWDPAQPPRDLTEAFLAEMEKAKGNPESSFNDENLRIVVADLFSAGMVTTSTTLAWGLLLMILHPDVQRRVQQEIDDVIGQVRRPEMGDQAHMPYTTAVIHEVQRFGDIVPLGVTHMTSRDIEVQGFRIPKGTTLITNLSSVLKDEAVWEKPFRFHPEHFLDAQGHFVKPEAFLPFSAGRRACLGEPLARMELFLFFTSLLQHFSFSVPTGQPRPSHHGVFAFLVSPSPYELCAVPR", "experiment": "Selective chemical inhibition of compound of formula (I) depletion in human liver microsomes, CYP2D6", "conditions": "Direct inhibitor; targeted CYP 2D6; inhibitor 5 μM"}, "CYP2C19 mRNA": {"tested_on": "CYP2C19 mRNA", "experiment": "CYP mRNA level in cultured human hepatocytes, CYP2C19", "assay_type": "in vitro ADME", "conditions": "CYP2C19; 20 μM; range from three donors"}, "CYP2C9": {"target": "CYP2C9 (Homo sapiens, UniProt P11712)", "sequence (P11712 whole entry)": "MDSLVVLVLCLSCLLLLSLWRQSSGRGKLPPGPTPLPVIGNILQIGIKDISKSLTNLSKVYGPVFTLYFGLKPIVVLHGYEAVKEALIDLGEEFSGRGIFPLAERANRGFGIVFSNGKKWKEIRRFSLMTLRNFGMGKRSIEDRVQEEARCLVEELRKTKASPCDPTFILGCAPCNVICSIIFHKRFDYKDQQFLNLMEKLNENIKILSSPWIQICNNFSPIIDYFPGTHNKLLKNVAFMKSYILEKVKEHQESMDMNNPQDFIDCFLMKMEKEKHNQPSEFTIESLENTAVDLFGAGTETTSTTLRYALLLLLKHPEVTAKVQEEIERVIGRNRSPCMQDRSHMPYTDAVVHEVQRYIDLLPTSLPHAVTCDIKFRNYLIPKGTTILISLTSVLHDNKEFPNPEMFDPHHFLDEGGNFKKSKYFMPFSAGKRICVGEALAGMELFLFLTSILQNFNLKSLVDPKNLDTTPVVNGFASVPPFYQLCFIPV", "experiment": "in vitro"}}, "data": [{"smiles": "CSCC[C@H](NC(=O)c1ccc(N)cc1)C(=O)Nc1nc(-c2cccc(-c3ccncc3)c2)cs1", "note": "[Compound A]", "values": [{"measurement": "onset of inhibition versus clinical PKC and MEK inhibitors", "setting": "[1]; 92-1 or MP41", "result": "faster onset of inhibition"}, {"measurement": "growth inhibition of uveal melanoma cells versus clinical PKC and MEK inhibitors", "setting": "[1]; 92-1 or MP41, 3 days, 0 to 10 μM, vs LXS196 and selumetinib", "result": "comparable growth inhibition"}]}, {"smiles": "CSCC[C@H](NC(=O)c1ccn(S(C)(=O)=O)c1)C(=O)Nc1nc(-c2cccc(-c3ccncc3)c2)cs1", "note": "[Compound B]", "values": [{"measurement": "growth inhibition in the cell lines", "setting": "[2]", "result": "potent growth inhibition"}, {"measurement": "onset of growth inhibition versus clinical PKC and MEK inhibitors", "setting": "[3]; 92-1 or MP41", "result": "faster onset of growth inhibition"}, {"measurement": "growth inhibition of uveal melanoma cells versus clinical PKC and MEK inhibitors", "setting": "[3]; 92-1 or MP41, 3 days, vs LXS196 and selumetinib", "result": "more potent effects on growth inhibition"}]}, {"smiles": "COc1ccc2nc([S@@+]([O-])Cc3ncc(C)c(OC)c3C)[nH]c2c1", "note": "[Esomeprazole, reference compound]", "values": [{"measurement": "inhibition at 10 µM", "setting": "CYP2C19", "result": 27.1, "unit": "%"}]}, {"smiles": "Cc1nc2c([nH]1)c(=O)n(C)c(=O)n2Cc1ccco1", "note": "[Furafylline]", "values": [{"measurement": "inhibition at 10 µM", "setting": "CYP1A2", "result": 1.9, "unit": "%"}]}, {"smiles": "Cc1ccc(C)c(OCCCC(C)(C)C(=O)O[C@@H]2O[C@H](C(=O)O)[C@@H](O)[C@H](O)[C@H]2O)c1", "note": "[Gemfibrozil glucuronide]", "values": [{"measurement": "% Inhibition of compound of formula (I) depletion in human liver microsomes", "setting": "2C8", "result": "No"}]}, {"smiles": "CC(=O)N1CCN(c2ccc(OCC3COC(Cn4ccnc4)(c4ccc(Cl)cc4Cl)O3)cc2)CC1", "note": "(stereo not shown) [Ketoconazole, reference compound]", "values": [{"measurement": "inhibition at 1 µM", "setting": "CYP3A4/5", "result": 83.3, "unit": "%"}]}, {"smiles": "CC1(N)CCN(c2cccnc2NC(=O)c2nc(-c3ncccc3C(F)(F)F)cnc2N)CC1", "note": "[LXS196]", "values": [{"measurement": "sensitivity of PKCl-resistant cells relative to parental MP41 cells", "setting": "[4]", "result": "could tolerate growth at higher concentrations"}]}, {"smiles": "N#Cc1ccc(C(c2ccc(C#N)cc2)n2cncn2)cc1", "note": "[Letrozole]", "values": [{"measurement": "inhibition at 10 µM", "setting": "CYP2A6", "result": 9.1, "unit": "%"}]}, {"smiles": "COc1ccc2[nH]c([S+]([O-])Cc3ncc(C)c(OC)c3C)nc2c1", "note": "(stereo not shown) [Omeprazole, reference compound]", "values": [{"measurement": "Positive Control mRNA Fold Change", "setting": "CYP1A2 mRNA", "result": "50.2-118"}, {"measurement": "Positive Control Enzyme Activity Fold Change", "setting": "CYP1A2 enzyme activity", "result": "20.0-93.9"}]}, {"smiles": "c1ccc(C2(N3CCCCC3)CCCCC2)cc1", "note": "[Phencyclidine]", "values": [{"measurement": "inhibition at 30 µM", "setting": "CYP2B6", "result": 5.7, "unit": "%"}]}, {"smiles": "CCC1(c2ccccc2)C(=O)NC(=O)NC1=O", "note": "[Phenobarbital, reference compound]", "values": [{"measurement": "Positive Control mRNA Fold Change", "setting": "CYP2B6 mRNA", "result": "15.3-39.6"}, {"measurement": "Positive Control Enzyme Activity Fold Change", "setting": "CYP2B6 activity", "result": "11.9-16.7"}]}, {"smiles": "C=C[C@H]1C[N@@]2CC[C@H]1C[C@@H]2[C@@H](O)c1ccnc2ccc(OC)cc12", "note": "[Quinidine]", "values": [{"measurement": "% Inhibition of compound of formula (I) depletion in human liver microsomes", "setting": "2D6", "result": "No"}]}, {"smiles": "CO[C@H]1/C=C/O[C@@]2(C)Oc3c(C)c(O)c4c(O)c(c(/C=N/N5CCN(C)CC5)c(O)c4c3C2=O)NC(=O)/C(C)=C\\C=C\\[C@H](C)[C@H](O)[C@@H](C)[C@@H](O)[C@@H](C)[C@H](OC(C)=O)[C@@H]1C", "note": "[Rifampin, reference compound]", "values": [{"measurement": "Positive Control mRNA Fold Change", "setting": "CYP2C19 mRNA", "result": "0.61-1.01"}]}, {"smiles": "O=C(O)COc1ccc(C(=O)c2cccs2)c(Cl)c1Cl", "note": "[Tienilic acid]", "values": [{"measurement": "inhibition at 20 µM", "setting": "CYP2C9", "result": 2.4, "unit": "%"}]}]}
